The target in the assay is T1, cathepsin K (Homo sapiens, UniProt P43235).
T1 construct: gene CTSK; recombinant human CatK
T1 sequence (P43235 115-329): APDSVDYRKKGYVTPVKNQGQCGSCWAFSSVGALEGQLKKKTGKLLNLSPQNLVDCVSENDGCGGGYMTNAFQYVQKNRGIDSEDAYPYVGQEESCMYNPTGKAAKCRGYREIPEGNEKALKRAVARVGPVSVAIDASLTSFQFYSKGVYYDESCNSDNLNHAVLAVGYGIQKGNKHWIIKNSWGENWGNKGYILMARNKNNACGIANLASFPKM
In words: gelatin zymography with recombinant human CatK. The format is biochemical.

Regarding `CC(C)C[C@H](NC(=O)c1ccc(-c2ccc(-c3ccccc3)cc2)cc1)C(=O)N(C)N(C)C#N` [CKI-8], the IC50 is 51 ± 20 nM. For `CC(C)C[C@H](NC(=O)c1cccc(-c2ccc(-c3ccccc3)cc2)c1)C(=O)N(C)N(C)C#N` [CKI-13], the IC50 was 29 ± 11 nM.

The record behind these values is publication PMC4500499, “Azanitrile Cathepsin K Inhibitors: Effects on Cell Toxicity, Osteoblast-Induced Mineralization and Osteoclast-Mediated Bone Resorption” (PLoS ONE, 2015).
